{"source": "patent US20090197805A1", "about": "“Insulin receptor antagonists and related compositions, uses and methods” (Novo Nordisk A/S, priority 2005, published 2009)", "key": {"Zucker Obese rats [1]": {"tested_on": "Zucker Obese rats", "experiment": "Glucose profile after i.v. S661 at different doses followed by i.p. human insulin", "type": "in vivo, rat", "procedure": "FIG. 2. Glucose profile in Zucker obese (ZO) male rats after intravenous (i.v.) administration of different doses of peptidic insulin receptor antagonist S661, followed by intraperitoneal (i.p.) administration of human insulin.\nNine groups of 5 or 6 male, 16 week old Zucker Obese rats (Charles River) with an average weight of about 580 gram were kept on ad lib Purina 5008 and ad lib drinking water and fasted overnight for the experiment. The glucose level was tested at 20 minutes and 10 minutes prior to administration of the PIRA designated S661 (described above) Intravenous (i.v.) administration of different doses of S661 in PBS or vehicle was followed by (10 minutes after administration of S661) intraperitoneal (i.p.) administration of different amounts of human insulin in PBS or vehicle. Blood glucose levels were measured at 10, 20, 30, 40, 60, 80, 120, and 180 minutes after injection of insulin."}, "insulin receptor": {"target": "insulin receptor (Homo sapiens, UniProt P06213)", "experiment": "Competition binding assay with 125I-labeled cognate ligand, insulin receptor", "conditions": "125I-labeled ligand", "procedure": "(§1) To test the selectivity of PIRA S661 for the insulin receptor versus a related receptor, the IGF1 receptor, competition binding assays were carried out using both receptors and their cognate ligands in ^125I-labeled form."}, "Zucker Obese rats [2]": {"tested_on": "Zucker Obese rats", "experiment": "Glucose profile after i.v. S661 followed after different times by i.p. human insulin", "type": "in vivo, rat", "conditions": "30 nmol/kg S661 i.v. at various times before 30 nmol/kg human insulin i.p., FIG. 3", "procedure": "FIG. 3. Glucose profile in ZO rats after i.v. administration of Insulin Receptor Antagonist, S661, followed after different times by i.p. administration of human insulin.\nEight groups of 5 to 7 male, 15 week old Zucker Obese rats (Charles River) with an average weight of about 550 gram were kept on ad lib Purina 5008 and ad lib drinking water and fasted overnight for the experiment. PIRA S661 in PBS was administered i.v. at 30 nmol/kg at various times before the i.p. administration of 30 nmol/kg human insulin in PBS."}, "IGF1 receptor": {"target": "IGF1 receptor (Homo sapiens, UniProt P08069)", "experiment": "Competition binding assay with 125I-labeled cognate ligand, IGF1 receptor", "conditions": "125I-labeled ligand, affinity too low to be measured", "procedure": "as §1"}, "SGBS cells": {"tested_on": "SGBS cells", "experiment": "PIRA antagonist assay: insulin stimulated 14C-glucose uptake", "type": "cell-based", "conditions": "SGBS cells (human adipocyte cell line); FIG. 1", "procedure": "In order to identify an insulin receptor binding peptide as an antagonist (PIRA), a candidate peptide can be tested in a glucose uptake assay in e.g. SGBS cells (a human adipocyte cell line) or primary rodent adipocytes. Briefly, the cells are incubated with various concentrations of insulin and subsequently ^14C-glucose uptake is measured. To test a peptide for antagonist properties, a submaximally stimulating concentration of insulin (e.g., resulting in half maximal insulin response) is added and also a dilution series of the peptide to be tested. If the peptide is a PIRA, the insulin induced response is reduced to or below the baseline response with increasing concentration of PIRA and the potency of the PIRA can be estimated from the concentration of PIRA necessary to observe the reduction in response."}, "[3]": {"conditions": "3 nmol/kg S661 i.v., 30 nmol/kg insulin i.p., Zucker Obese rats"}}, "note": "Ends that are not written are not given here.", "data": [{"substance": "GSLDESFYDWFERQLGGGSGGSSLEEEWAQIQCEVWGRGCPSY-amide (GSLDESFYDWFERQLGGGSGGSSLEEEWAQIQCEVWGRGCPSY-NH2; cysteine pairing not given here) [S661, peptidic insulin receptor antagonist]", "values": [{"measurement": "glucose levels as compared to control", "setting": "Zucker Obese rats [1]; [3]", "result": "slightly higher"}, {"measurement": "glucose levels as compared to insulin alone", "setting": "Zucker Obese rats [1]; [3]", "result": "significantly higher levels"}, {"measurement": "blood glucose levels versus insulin alone or only vehicle", "setting": "Zucker Obese rats [1]; male Zucker Obese rats, fasted, S661 i.v. 10 minutes before i.p. human insulin, FIG. 2", "result": "significantly higher"}, {"measurement": "affinity for the insulin receptor relative to human insulin", "setting": "insulin receptor", "result": "48 % of that of human insulin"}, {"measurement": "time after administration at which still an effective antagonist (blood glucose)", "setting": "Zucker Obese rats [2]", "result": "≥ 6", "unit": "h"}, {"measurement": "affinity for the IGF1 receptor relative to IGF1", "setting": "IGF1 receptor", "result": "at least 200.000 fold lower than that of IGF1"}, {"measurement": "effect on submaximally insulin stimulated glucose uptake", "setting": "SGBS cells", "result": "inhibition of submaximally insulin stimulated glucose uptake"}]}]}
